US20230255884A1, “FINISHED FIBROUS SRUCTURES AND METHODS OF THEIR USE AND PREPARATION” (CLEXIO BIOSCIENCES LTD., priority 2019, published 2023)
Counter-ions that a name gives are not always drawn.

How the values were obtained:
[1] = Example 16: % Add on of diclofenac compositions (10% Diclofenac sodium salt, 10% PEG 400, 10% propylene glycol, 2% Polysorbate 80), 60° C., 1 h, squeezed; type: physicochemical
Procedure: The samples were then removed from their vessels, squeezed, weighed and left to dry overnight at room temperature before their dry weight and percentage Add on were determined.

[2] = Example 16: diclofenac in the mother liquor by HPLC; type: physicochemical

% Add on ([1]; NaOH 1 drop, pH 13.2): 32.0%
% Add on ([1]; NaOH 1 drop, pH 14.0): 46.0%
% Add on ([1]; ethanol 13.6% (w/w), no NaOH, pH 8.3): 44.1%
% Add on ([1]; no ethanol, no NaOH, pH 8.5): 42.2%
diclofenac concentration in the mother liquor ([2]; ethanol based liquor): 90.76 mg/g
diclofenac concentration in the mother liquor ([2]; water based liquor): 93.68 mg/g
SMILES: O=C(O)Cc1ccccc1Nc1c(Cl)cccc1Cl [Diclofenac, Diclofenac sodium salt]
